Among the data in patent US20230339977A1, “SUBSTITUTED HETEROARYL COMPOUND, AND COMPOSITION AND APPLICATION THEREOF” (SUNSHINE LAKE PHARMA CO., LTD., priority 2020, published 2023) are half-life and CLint scaled values, retold here.

A short description of this data set: Stability in human liver microsomes. It is filed as in vitro ADME. The procedure:
The stability of the compounds of the present invention in human and rat liver microsomes can be tested by the following two methods:
Human or rat liver microsomes were incubated in polypropylene tubes in duplicate wells. A typical incubation mixture included human or rat liver microsomes (0.5 mg protein/mL), target compound (5 µM), and a total volume of 200 µL of NADPH (1.0 mM) potassium phosphate buffer (PBS, 100 mM, pH 7.4), the compound was dissolved in DMSO and diluted with PBS, the final concentration of the DMSO solution was 0.05%. Human or rat liver microsomes were incubated at 37° C. in an air-connected water bath. After pre-incubation for 3 minutes, […] was added to start the reaction. The same volume of ice-cold acetonitrile was added to terminate the reaction at different time points (0, 5, 10, 15, 30 and 60 min). Samples were stored at -80° C. until LC/MS/MS analysis.
The linear concentration range of each target compound was determined, and then, the concentration of the target compounds in the human or rat liver microsomes incubation mixture was determined by LC/MS/MS method.
Parallel incubations were performed using denatured microsomes as a negative control and dextromethorphan (70 µM) as a positive control. Negative control was incubated at 37° C., the reaction was terminated at different time points (0, 15 and 60 minutes); positive control was incubated at 37° C., the reaction was terminated at different time points (0, 5, 10, 15, 30 and 60 minutes). Positive and negative control samples were used in each assay to ensure the integrity of the microsomal incubation system.
In addition, the stability data of the compounds of the present invention in human or rat liver microsomes can also be obtained from the following tests:
Human or rat liver microsomes were incubated in polypropylene tubes in duplicate wells. A typical incubation mixture included human or rat liver microsomes (final concentration: 0.5 mg protein/mL), target compound (final concentration: 1.5 µM) and a total volume of 30 µL of K-buffer solution (containing 1.0 mM EDTA, 100 mM, pH 7.4). Compounds were dissolved in DMSO and diluted with K-buffer solution, the final concentration of DMSO was 0.2%. […]
For each reaction, in vivo intrinsic hepatic clearance CLint is extrapolated by plotting the compound concentration (expressed as a percentage) in human or rat liver microsomal incubations as a percentage relative to time zero (ref.: Naritomi Y, Terashita S, Kimura S, Suzuki A, Kagayama A, Sugiyama Y. Prediction of human hepatic clearance from in vivo animal experiments and in vitro metabolic studies with liver microsomes from animals and humans. Drug Metabolism and Disposition 2001, 29: 1316-1324.).
(In general: Microsomes from liver hold many membrane-bound enzymes, among them those of drug oxidation.)

What is called CLint scaled is a measure of how fast metabolising enzymes remove a compound, apart from limits set by blood flow. In the case of `CC(=O)Nc1cc2c(-c3ccc4c(n3)C3(CCOC3)OC4)cn(C)c2cn1` (centres unmarked) [Example 2, N-(3-(4,5-Dihydro-2H,5′H-Spiro[Furan-3,7′-Furo[3,4-b]Pyridin]-2′-yl)-1-Methyl-1H-Pyrrolo[2,3-c]Pyridin-5-yl)Acetamide], the half-life (human, pH 7.4, read-out: Human T½) was found to be 48.2 min. Moreover, the intrinsic clearance (CLint scaled) (pH 7.4, in vivo intrinsic hepatic clearance extrapolated) is 36 mL/min/kg.
